Source: patent US4032544A, “3-Cyano-4-hydroxy coumarin derivatives” (Beecham Group Limited, priority 1974, dated 1977)

Test system: PCA response
Assay: rat Passive Cutaneous Anaphylaxis Test (PCA test)
Assay type: in vivo, rat (male Wistar)
Settings: sc, subcutaneous, sodium salt
Protocol: The compounds prepared in the preceding examples were tested in the rat Passive Cutaneous Anaphylaxis Test (PCA test), described below. They were administered as their sodium salts either in pH 7.2 phosphate buffer (for soluble salts) or as a suspension in 1% methyl cellulose (for insoluble salts).
Male Wistar rats of 250-300 g, were injected intraperitoneally with 0.5 ml. of Bordatella pertussis vaccine (containing 4× 10^10 dead organism per ml) and subcutaneously with 0.5 ml. of an emulsion of 100 mg. of ovalbumin in 2 ml. of saline and 3 ml. of incomplete Freunds' adjuvant. Rats were bled by cardiac puncture on day 18, the blood was pooled and separated and serum stored at -20° and thawed only once before use.
0.1 ml. of each of six twofold serial dilutions of the serum in 0.9% saline were injected intradermally into separate sites on the shaved dorsal surface of 250-350 g. Male Wistar rats. 72 hours later the animals were challenged by i.v. injection of 0.3 ml. of 1% ovalbumin mixed with 0.1 ml. of a 5% solution of pontamine sky blue dye both in isotonic saline buffered with pH 7.2 Sorenson buffer (P.B.S.). The rats were killed after 20 minutes and the diameter of the blue wheals at the antibody injection sites were measured. The starting dilution of the serum was adjusted so that there was no response, after challenge, at the site of injection of the highest dilution and a maximum response at the two or three lowest dilutions.
Amounts of the compounds were administered to rats by subcutaneous injection, into the nucal region, of a solution of the compound in P.B.S. or as a suspension in 1% methyl cellulose, each amount a test group of six animals at a specified time prior to intravenous challenge with ovalbumin.
% Inhibition of P.C.A.= 100 (1 -a/b)
For those compounds having insoluble sodium salts, the salts were isolated by reaction of the free cyano compound with 2.5N sodium hydroxide and the filtered sodium salt washed free of alkali with water. The dried salts were then administered as a suspension in 1% methyl cellulose.

[1] = 0 h, 0 mins. prior to challenge
[2] = 0.5 h, 30 mins. prior to challenge
[3] = 10 min, 10 mins. prior to challenge
[4] = 1 h, 60 mins. prior to challenge

Structure (SMILES)	inhibition in vivo at 25 mg/kg [1] [%]	inhibition in vivo at 100 mg/kg [1] [%]	inhibition in vivo at 25 mg/kg [2] [%]	inhibition in vivo at 100 mg/kg [2] [%]	inhibition in vivo at 5 mg/kg [3] [%]	inhibition in vivo at 10 mg/kg [3] [%]	inhibition in vivo at 20 mg/kg [3] [%]	other results
N#CC1C(=O)c2ccccc2C1=O [Example 1, 2-Cyano indan-1,3-dione]	43	64	8	16	–	–	–	–
Cc1ccc2c(c1)C(=O)C(C#N)C2=O (stereo not drawn) [Example 2, 2-Cyano-5-methyl indan-1,3-dione]	45	76	15	35	–	–	–	–
Cc1cc2c(cc1C)C(=O)C(C#N)C2=O [Example 3, 2-Cyano-5,6-dimethyl indan-1,3-dione]	–	–	–	–	56	77	92	inhibition in vivo at 2.5 mg/kg [3]: 46%
Cc1cccc2c1C(=O)C(C#N)C2=O (stereo not drawn) [Example 4, 2-Cyano-4-methyl indan-1,3-dione]	–	–	–	–	21	25	75	inhibition in vivo at 40 mg/kg [3]: 83%
COc1cccc2c1C(=O)C(C#N)C2=O (stereo not drawn) [Example 5, 2-Cyano-4-methoxy indan-1,3-dione]	–	–	–	–	28	16	57	inhibition in vivo at 40 mg/kg [3]: 81%
N#CC1C(=O)c2cc3ccccc3cc2C1=O [Example 6, 5,6-Benzo-2-cyano indan-1,3-dione]	–	–	27	30	–	–	–	inhibition in vivo at 25 mg/kg [3]: 88%; inhibition in vivo at 100 mg/kg [3]: 70%
N#CC1C(=O)c2ccc(Cl)cc2C1=O (stereo not drawn) [Example 7, 5-Chloro-2-cyano indan-1,3-dione]	–	–	15	–	–	33	–	inhibition in vivo at 25 mg/kg [3]: 76%; inhibition in vivo at 10 mg/kg [2]: 21%
CCc1cc2c(cc1CC)C(=O)C(C#N)C2=O [Example 8, 2-Cyano-5,6-diethyl indan-1,3-dione]	–	–	–	–	74	90	78	inhibition in vivo at 40 mg/kg [3]: 64%
N#Cc1c(O)c2ccccc2oc1=O [Example 9, 3-Cyano-4-hydroxycoumarin]	64	87	30	40	–	–	–	–
CCc1cc2c(O)c(C#N)c(=O)oc2cc1C [Example 10, 3-Cyano-6-ethyl-4-hydroxy-7-methyl coumarin]	–	–	17	–	–	71	–	inhibition in vivo at 25 mg/kg [3]: 67%; inhibition in vivo at 10 mg/kg [2]: 24%
Cc1cc2oc(=O)c(C#N)c(O)c2cc1C [Example 11, 3-Cyano-6,7-dimethyl-4-hydroxycoumarin monohydrate]	51	72	16	11	–	–	–	–
CCc1cc2oc(=O)c(C#N)c(O)c2cc1CC [Example 12, 3-Cyano-6,7-diethyl-4-hydroxy coumarin]	–	–	–	–	72	68	93	inhibition in vivo at 2.5 mg/kg [3]: 64%
Cc1ccc2oc(=O)c(C#N)c(O)c2c1 [Example 13, 3-Cyano-4-hydroxy-6-methyl coumarin]	14	40	21	22	–	–	–	–
Cc1ccc2c(O)c(C#N)c(=O)oc2c1 [Example 14, 3-Cyano-4-hydroxy-7-methyl coumarin]	45	74	14	18	–	–	–	–
CCc1ccc2c(O)c(C#N)c(=O)oc2c1 [Example 15, 3-Cyano-7-ethyl-4-hydroxy coumarin]	34	64	27	17	–	–	–	–
CCOc1ccc2c(O)c(C#N)c(=O)oc2c1 [Example 16, 3-Cyano-7-ethyloxy-4-hydroxy coumarin monohydrate]	–	–	–	–	59	71	86	inhibition in vivo at 40 mg/kg [3]: 73%
N#Cc1c(O)c2cc3ccccc3cc2oc1=O [Example 17, 3-Cyano-4-hydroxy-2-oxo-2H-naphtho[2,3-b] pyran]	9	15	–	–	–	–	–	inhibition in vivo at 25 mg/kg [4]: 23%; inhibition in vivo at 100 mg/kg [4]: 18%
N#Cc1c(O)c2cc3c(cc2oc1=O)CCCC3 [Example 18, 3-Cyano-4-hydroxy-2-oxo-6,7,8,9-tetrahydro-2H-naphtho [2,3-b] pyran]	–	–	–	–	–	–	–	inhibition in vivo at 1 mg/kg (10 min, 1 mg/kg, 10 mins. prior to challenge): 2%; inhibition in vivo at 2 mg/kg (10 min, 2 mg/kg, 10 mins. prior to challenge): 22%; inhibition in vivo at 4 mg/kg (10 min, 4 mg/kg, 10 mins. prior to challenge): 52%; inhibition in vivo at 8 mg/kg (10 min, 8 mg/kg, 10 mins. prior to challenge): 67%
Cc1cccc2c(O)c(C#N)c(=O)oc12 [Example 19, 3-Cyano-4-hydroxy-8-methylcoumarin monohydrate]	48	67	23	35	–	–	–	–
COc1ccc2oc(=O)c(C#N)c(O)c2c1 [Example 20, 3-Cyano-4-hydroxy-6-methyloxycoumarin]	54	72	29	36	–	–	–	–
Cc1ccc2c(O)c(C#N)c(=O)oc2c1C [Example 21, 3-Cyano-7,8-dimethyl-4-hydroxycoumarin monohydrate]	–	–	–	–	39	65	97	inhibition in vivo at 2.5 mg/kg [3]: 20%
